# Test results as given in patent publication US10077241B2 (Janssen Pharmaceutica NV, priority 2014, dated 2018).
# Experiments:
# [1] = biological target: T1, TGR5 (NCI-H716 cell line) (Homo sapiens, UniProt Q8TDU6); experiment: NCI-H716 cAMP Agonist EC50 Determination
# T1 sequence (Q8TDU6 1-330): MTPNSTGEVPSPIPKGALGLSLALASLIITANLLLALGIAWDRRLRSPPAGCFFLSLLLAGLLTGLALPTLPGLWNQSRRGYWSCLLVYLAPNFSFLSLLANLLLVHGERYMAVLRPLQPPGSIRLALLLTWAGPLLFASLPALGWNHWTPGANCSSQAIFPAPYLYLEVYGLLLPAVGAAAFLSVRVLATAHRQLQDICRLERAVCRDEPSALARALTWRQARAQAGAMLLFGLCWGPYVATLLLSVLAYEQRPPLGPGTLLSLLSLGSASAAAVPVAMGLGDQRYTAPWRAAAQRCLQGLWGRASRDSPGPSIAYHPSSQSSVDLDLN
# TGR5 (STC1 cell line) = biological target: T2, TGR5 (STC1 cell line) (Mus musculus, UniProt Q80SS6); experiment: STC1 cAMP Agonist EC50 Determination
# T2 sequence (Q80SS6 1-329): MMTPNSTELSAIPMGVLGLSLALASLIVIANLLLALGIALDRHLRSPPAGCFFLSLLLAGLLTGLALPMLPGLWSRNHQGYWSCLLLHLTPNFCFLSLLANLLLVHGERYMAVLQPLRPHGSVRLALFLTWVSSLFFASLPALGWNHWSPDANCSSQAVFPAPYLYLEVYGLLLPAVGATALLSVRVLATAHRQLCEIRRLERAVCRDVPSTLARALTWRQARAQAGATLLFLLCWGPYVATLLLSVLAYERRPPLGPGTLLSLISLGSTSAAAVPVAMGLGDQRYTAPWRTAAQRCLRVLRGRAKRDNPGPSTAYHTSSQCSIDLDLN
# Experimental: Cell stocks were maintained and grown in a sub-confluent state using standard cell culture procedures. The day before the experiment, the cells were harvested with non-enzymatic cell dissociation buffer and resuspended in complete growth media at 4E5 c/ml. […] The seeded plates were incubated overnight at 37° C.
# On the day of the experiment, Assay Buffer containing: HBSS with Ca^2+and Mg^2+; 5 μM HEPES; 0.1% BSA; and, 0.5 μM IBMX was prepared. The growth medium was washed from the cell plates and replaced with 20 μL of Assay Buffer. […] The reaction was stopped by the addition of 20 μL 0.1% Formic Acid to all wells. Sixty minutes later 30 μL 3 M deuterated AMP was added to all wells (as a control for volume addition to the mass spec). Plates were mixed on a plate shaker for 1 min and centrifugated (5 min 3000 RPMs no brakes).
# Plates were run on a 4000 QTrap triple-quadrapole Mass spectrometer in positive ion mode coupled with a Biocius RapidFire 300is. […] Two ions (cAMP and deuterated AMP were measured using Multiple Reaction Monitoring (MRM) in positive ion mode and the area under the curve (AUC) was determined for each of the ions.
# The data from the Mass Spec/Rapid Plate AUC for cAMP and deuterated AMP were imported to an Excel worksheet. A Normalized signal (NS) was generated for each well=(cAMP AUC for the well/deut AMP AUC for the well)*average deut AMP AUC for the plate). nM cAMP was calculated for each well from the cAMP standard curves located on each plate by first calculating the slope and deriving the intercept (b).
# EC50 values were determined from a 4-point fit (Hill equation) of a single 11-point compound dosing.
SMILES,EC50 [1] [µM],EC50 (TGR5 (STC1 cell line)) [µM]
"COc1ccc(C2(C)CCCc3nc(SCc4c(F)cccc4[N+](=O)[O-])n(-c4ccc(F)cc4)c32)cc1OC (centres unmarked) [Example 115, 7-(3,4-dimethoxyphenyl)-2-((2-fluoro-6-nitrobenzyl)thio)-1-(4-fluorophenyl)-7-methyl-4,5,6,7-tetrahydro-1H-benzo[d]imidazole]",2.6,0.22
"COc1ccc(C2(C)CCCc3nc(SCc4nccs4)n(-c4ccc(F)cc4)c32)cc1OC (centres unmarked) [Example 117, 2-(((7-(3,4-dimethoxyphenyl)-1-(4-fluorophenyl)-7-methyl-4,5,6,7-tetrahydro-1H-benzo[d]imidazol-2-yl)thio)methyl)thiazole]",2.65,0.41
"COc1cc(C2(C)CCCc3nc(SCc4c(F)cc(C(=O)O)cc4F)n(-c4ccc(F)cc4)c32)ccc1F (centres unmarked) [Example 120, 3,5-difluoro-4-(((7-(4-fluoro-3-methoxyphenyl)-1-(4-fluorophenyl)-7-methyl-4,5,6,7-tetrahydro-1H-benzo[d]imidazol-2-yl)thio)methyl)benzoic acid]",> 50,1.18
"COc1cc(C2(C)CCCc3nc(SCc4c(F)cc(-c5nnn[nH]5)cc4F)n(-c4ccc(F)cc4)c32)ccc1F (centres unmarked) [Example 121, 2-((2,6-difluoro-4-(1H-tetrazol-5-yl)benzyl)thio)-7-(4-fluoro-3-methoxyphenyl)-1-(4-fluorophenyl)-7-methyl-4,5,6,7-tetrahydro-1H-benzo[d]imidazole]",> 50,3.11
"COc1cc(C2(C)CCCc3nc(SCc4c(F)cc(C(=O)N5CCOCC5)cc4F)n(-c4ccc(F)cc4)c32)ccc1F (centres unmarked) [Example 122, (3,5-difluoro-4-(((7-(4-fluoro-3-methoxyphenyl)-1-(4-fluorophenyl)-7-methyl-4,5,6,7-tetrahydro-1H-benzo[d]imidazol-2-yl)thio)methyl)phenyl) (morpholino)methanone]",18.8,0.09
"COc1cc(C2(C)CCCc3nc(SCc4c(F)cc(C(=O)NCCOCCOCCOCCO)cc4F)n(-c4ccc(F)cc4)c32)ccc1F (centres unmarked) [Example 123, 3,5-difluoro-4-(((7-(4-fluoro-3-methoxyphenyl)-1-(4-fluorophenyl)-7-methyl-4,5,6,7-tetrahydro-1H-benzo[d]imidazol-2-yl)thio)methyl)-N-(2-(2-(2-(2-hydroxyethoxy)ethoxy)ethoxy)ethyl) benzamide]",17,0.05
"COCCNC(=O)c1cc(F)c(CSc2nc3c(n2-c2ccc(F)cc2)C(C)(c2ccc(F)c(OC)c2)CCC3)c(F)c1 (centres unmarked) [Example 124, 3,5-difluoro-4-(((7-(4-fluoro-3-methoxyphenyl)-1-(4-fluorophenyl)-7-methyl-4,5,6,7-tetrahydro-1H-benzo[d]imidazol-2-yl)thio)methyl)-N-(2-methoxyethyl)benzamide]",> 50,0.8
"COc1cc(C2(C=O)CCCc3nc(SCc4c(F)cccc4Cl)n(-c4ccc(F)cc4)c32)ccc1Cl (centres unmarked) [Example 130, 4-(4-chloro-3-methoxyphenyl)-2-(2-chloro-6-fluorobenzylthio)-3-(4-fluorophenyl)-4,5,6,7-tetrahydro-3H-benzo[d]imidazole-4-carbaldehyde trifluoroacetic acid]",> 50,14.1
"COc1cc(C2OCCc3nc(SCc4c(F)cc(OCCOCCOCCCl)cc4F)n(-c4ccc(F)cc4)c32)ccc1Cl (centres unmarked) [Example 133, 4-(4-chloro-3-methoxyphenyl)-2-((4-(2-(2-(2-chloroethoxy)ethoxy)ethoxy)-2,6-difluorobenzyl)thio)-3-(4-fluorophenyl)-3,4,6,7-tetrahydropyrano[3,4-d]imidazole]",> 50,6.07
"Cc1nc2ccc(C3OCCc4nc(SCc5c(F)cccc5Cl)n(-c5ccc(F)cc5)c43)cc2o1 (centres unmarked) [Example 135, 2-((2-chloro-6-fluorobenzyl)thio)-3-(4-fluorophenyl)-4-(2-methylbenzo[d]oxazol-6-yl)-3,4,6,7-tetrahydropyrano[3,4-d]imidazole]",11,3.84
